Laboratory results taken from PMC6187632, “A glutaredoxin domain fused to the radical-generating subunit of ribonucleotide reductase (RNR) functions as an efficient RNR reductant” (The Journal of Biological Chemistry, 2018).

Columns and labels:
[1] = target: T1, F. ignava NrdB (Grx::NrdB fusion protein, NrdBi) (Falseniella ignava, UniProt K1LAT4); test: glutaredoxin activity, NADPH consumption at […] nm (GSH reductase coupled); assay type: biochemical; conditions: 4 mM GSH, 0.4 mM NADPH, pH 8.0, room temperature; Grx domain; artificial substrate
T1 construct: gene HMPREF9707_01368; full-length 496-residue fusion (Grx 4-61, ATP cone 84-169, NrdB core); E. coli BL21(DE3); dimer-tetramer equilibrium

[2] = target: T2, F. ignava NrdB (Grx::NrdB fusion protein, NrdBi) (Falseniella ignava, UniProt K1LAT4, C15S); test: as above; assay type: biochemical; conditions: 4 mM GSH, 0.4 mM NADPH, pH 8.0, room temperature; Grx domain, monothiol mechanism
T2 construct: gene HMPREF9707_01368; full-length 496-residue fusion (Grx 4-61, ATP cone 84-169, NrdB core); E. coli BL21(DE3); dimer-tetramer equilibrium

[3] = target: T1, F. ignava NrdB (Grx::NrdB fusion protein, NrdBi); test: biochemical; assay type: binding
[4] = target: T3, F. ignava RNR holoenzyme (NrdA + NrdB) (Falseniella ignava, UniProt K1LAT4); test: RNR activity; assay type: biochemical; conditions: weaker inhibition than dATP; ATP cone of NrdB
T3 construct: gene HMPREF9707_01368; E. coli BL21(DE3); active complex alpha2beta2; with Ribonucleoside-diphosphate reductase subunit alpha
T3 sequence (K1LAT4 1-496): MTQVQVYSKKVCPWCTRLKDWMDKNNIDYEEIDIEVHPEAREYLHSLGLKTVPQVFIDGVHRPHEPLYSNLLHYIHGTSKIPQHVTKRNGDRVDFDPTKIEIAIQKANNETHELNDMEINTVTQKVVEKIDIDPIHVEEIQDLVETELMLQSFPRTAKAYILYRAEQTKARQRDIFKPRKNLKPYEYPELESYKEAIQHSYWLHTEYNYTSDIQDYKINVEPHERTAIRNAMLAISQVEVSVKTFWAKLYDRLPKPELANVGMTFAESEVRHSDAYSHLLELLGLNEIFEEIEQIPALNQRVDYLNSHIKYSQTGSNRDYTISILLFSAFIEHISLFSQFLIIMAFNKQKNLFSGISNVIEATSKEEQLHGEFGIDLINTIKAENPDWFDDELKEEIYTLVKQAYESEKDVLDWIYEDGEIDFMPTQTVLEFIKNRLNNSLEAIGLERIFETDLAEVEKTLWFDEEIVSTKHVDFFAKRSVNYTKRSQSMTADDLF
T3 sequence (K1MC37 1-567 partner): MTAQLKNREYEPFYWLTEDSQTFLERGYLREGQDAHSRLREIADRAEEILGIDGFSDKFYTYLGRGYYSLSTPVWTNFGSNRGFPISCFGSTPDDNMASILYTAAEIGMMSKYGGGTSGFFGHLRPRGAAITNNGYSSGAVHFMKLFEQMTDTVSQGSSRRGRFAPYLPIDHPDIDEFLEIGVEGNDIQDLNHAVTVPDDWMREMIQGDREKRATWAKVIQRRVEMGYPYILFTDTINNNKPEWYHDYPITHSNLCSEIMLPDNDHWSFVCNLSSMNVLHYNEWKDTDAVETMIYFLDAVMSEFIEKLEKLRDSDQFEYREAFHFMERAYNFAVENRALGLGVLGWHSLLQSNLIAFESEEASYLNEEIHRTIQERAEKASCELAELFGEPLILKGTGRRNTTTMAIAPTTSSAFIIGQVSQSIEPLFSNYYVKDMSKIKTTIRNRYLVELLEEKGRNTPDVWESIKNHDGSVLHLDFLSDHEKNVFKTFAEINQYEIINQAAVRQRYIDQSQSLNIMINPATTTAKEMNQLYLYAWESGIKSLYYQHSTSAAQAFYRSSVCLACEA

[5] = target: T4, heterologous F. ignava NrdA/L. blandensis NrdB holoenzyme (Leeuwenhoekiella blandensis, UniProt A3XHF9); test: RNR activity (dGDP formation by HPLC); assay type: biochemical; conditions: GDP substrate, 2 mM dTTP, pH 8, room temperature; allosteric inhibition via L. blandensis NrdB ATP cone
T4 construct: gene MED217_17135; mixed-species complex; F. ignava NrdA His6-tagged, E. coli; with Ribonucleoside-diphosphate reductase subunit alpha (Falseniella ignava CCUG 37419)
T4 sequence (A3XHF9 1-427): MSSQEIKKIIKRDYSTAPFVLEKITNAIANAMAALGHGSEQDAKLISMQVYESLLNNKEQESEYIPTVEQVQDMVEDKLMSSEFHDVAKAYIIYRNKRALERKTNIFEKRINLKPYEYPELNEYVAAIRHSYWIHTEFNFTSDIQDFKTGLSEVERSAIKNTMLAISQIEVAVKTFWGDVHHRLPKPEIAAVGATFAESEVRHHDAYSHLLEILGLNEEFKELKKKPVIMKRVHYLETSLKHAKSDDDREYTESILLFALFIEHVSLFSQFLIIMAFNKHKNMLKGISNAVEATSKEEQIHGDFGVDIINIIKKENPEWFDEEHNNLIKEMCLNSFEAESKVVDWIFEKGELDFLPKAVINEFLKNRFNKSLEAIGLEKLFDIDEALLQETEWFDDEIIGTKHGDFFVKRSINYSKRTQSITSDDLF
T4 sequence (K1MC37 1-567 partner): T3 sequence (K1MC37 1-567 partner)

[6] = target: T3, F. ignava RNR holoenzyme (NrdA + NrdB); test: RNR activity (dGDP formation by HPLC); assay type: biochemical
[7] = target: Facklamia ignava NrdBΔGrx (NrdB lacking the Grx domain) (Facklamia ignava); test: GEMMA (gas-phase electrophoretic macromolecule analysis); NrdB deletion proteins analysed with and without 50 uM dATP (the text does not tell the two conditions apart); 20 mM ammonium acetate pH 7.8, 1 mM DTT, 0.005% Tween 20; step: dimers to tetramer
[8] = target: the molecule itself; test: GEMMA (gas-phase electrophoretic macromolecule analysis); no effector; 0.05 mg/ml protein (0.025 mg/ml of each in mixtures), 20 mM ammonium acetate pH 7.8, 1 mM DTT, 0.005% Tween 20, room temperature
[9] = target: the molecule itself; test: SEC; Superdex 200 10/300, 0.1 mM dATP in the mobile phase; 50 mM KCl, 10 mM MgCl2, 0.1 mM DTT, 50 mM Tris-HCl pH 7.6, room temperature; single subunits 5 and 10 uM, mixture 10 and 20 uM of each
[10] = target: the molecule itself; test: SEC; Superdex 200 10/300, no effector; 50 mM KCl, 10 mM MgCl2, 0.1 mM DTT, 50 mM Tris-HCl pH 7.6, room temperature; NrdA 5 and 10 uM, NrdB 1.25-10 uM, mixture 10 uM of each

Molecule: OCCSSCCO [2-hydroxyethyl disulfide]
- Km [1]: 600 ± 90 µM
- Km [2]: 1300 ± 240 µM

Molecule: Nc1ncnc2c1ncn2[C@@H]1O[C@H](COP(=O)(O)OP(=O)(O)OP(=O)(O)O)[C@@H](O)[C@H]1O [ATP]
- Kd [3]: 6.8 µM

Molecule: Nc1ncnc2c1ncn2[C@H]1C[C@H](O)[C@@H](COP(=O)(O)OP(=O)(O)O)O1 [dADP]
- Kd [3]: 5.8 µM
- RNR activity [4]: Titration with dADP inhibited the WT enzyme activity (Fig. S2)

Molecule: Nc1ncnc2c1ncn2[C@H]1C[C@H](O)[C@@H](COP(=O)(O)OP(=O)(O)OP(=O)(O)O)O1 [dATP]
- Kd [3]: 0.4 µM
- Ki [5]: ~70 µM
- Ki [6]: 1.3 ± 0.23 µM

Molecule: Facklamia ignava NrdBΔGrx (NrdB lacking the Grx domain) (domain or fragment)
- stoichiometry N [7]: 4

B1: Facklamia ignava NrdB (Grx::ATP-cone::NrdB fusion protein, NrdBi) (enzyme, UniProt K1LAT4 1-496, looked up)
chain: T3 sequence (K1LAT4 1-496)
notes: NrdB (NrdBi) of Facklamia ignava CCUG 37419, 496 residues: Grx domain (residues 4-61), ATP cone (residues 84-169), then the NrdB proper; amplified from genomic DNA with primers from the start ATG to the stop codon; a thrombin cleavage site follows the His6 tag; Expressed with 0.5 mM MnSO4; holds a Mn(III)/Mn(IV) cofactor; Dimer or tetramer by condition; also called WT NrdB; source: E. coli …
- stoichiometry N [8]: 2
- stoichiometry N [9]: 4

B2: Facklamia ignava NrdA (NrdAi) (enzyme, UniProt K1MC37 1-567, looked up)
chain: T3 sequence (K1MC37 1-567 partner)
notes: NrdA (NrdAi), catalytic subunit of the class I ribonucleotide reductase of Facklamia ignava CCUG 37419; amplified from genomic DNA with primers from the start ATG to the stop codon; a thrombin cleavage site follows the His6 tag; the form rests on the printed primers (ATG to stop); source: E. coli BL21(DE3), pET-28a(+), purified (HisTrap nickel-Sepharose, Superdex 200, phenyl-Sepharose)
- stoichiometry N [10]: 2
